Results as given in US20150018369A1 (priority 2012, published 2015).

What was measured:
DBT tumors = DBT tumors implanted in BalbC mice; assay type: in vivo, mouse; settings: treated daily over 2 weeks
GPR124 = biological target: T1, GPR124 (Homo sapiens, UniProt Q96PE1); assay: ST-11 toxicity in T98 g cells after siRNA knock-down of GPR124; assay type: cell-based; settings: ST-11 1 μM, siRNA targeting GPR124, viability after three days
T1 construct: endogenous in cells; host or cells: T98g human astrocytoma cells
T1 sequence (Q96PE1 34-1338): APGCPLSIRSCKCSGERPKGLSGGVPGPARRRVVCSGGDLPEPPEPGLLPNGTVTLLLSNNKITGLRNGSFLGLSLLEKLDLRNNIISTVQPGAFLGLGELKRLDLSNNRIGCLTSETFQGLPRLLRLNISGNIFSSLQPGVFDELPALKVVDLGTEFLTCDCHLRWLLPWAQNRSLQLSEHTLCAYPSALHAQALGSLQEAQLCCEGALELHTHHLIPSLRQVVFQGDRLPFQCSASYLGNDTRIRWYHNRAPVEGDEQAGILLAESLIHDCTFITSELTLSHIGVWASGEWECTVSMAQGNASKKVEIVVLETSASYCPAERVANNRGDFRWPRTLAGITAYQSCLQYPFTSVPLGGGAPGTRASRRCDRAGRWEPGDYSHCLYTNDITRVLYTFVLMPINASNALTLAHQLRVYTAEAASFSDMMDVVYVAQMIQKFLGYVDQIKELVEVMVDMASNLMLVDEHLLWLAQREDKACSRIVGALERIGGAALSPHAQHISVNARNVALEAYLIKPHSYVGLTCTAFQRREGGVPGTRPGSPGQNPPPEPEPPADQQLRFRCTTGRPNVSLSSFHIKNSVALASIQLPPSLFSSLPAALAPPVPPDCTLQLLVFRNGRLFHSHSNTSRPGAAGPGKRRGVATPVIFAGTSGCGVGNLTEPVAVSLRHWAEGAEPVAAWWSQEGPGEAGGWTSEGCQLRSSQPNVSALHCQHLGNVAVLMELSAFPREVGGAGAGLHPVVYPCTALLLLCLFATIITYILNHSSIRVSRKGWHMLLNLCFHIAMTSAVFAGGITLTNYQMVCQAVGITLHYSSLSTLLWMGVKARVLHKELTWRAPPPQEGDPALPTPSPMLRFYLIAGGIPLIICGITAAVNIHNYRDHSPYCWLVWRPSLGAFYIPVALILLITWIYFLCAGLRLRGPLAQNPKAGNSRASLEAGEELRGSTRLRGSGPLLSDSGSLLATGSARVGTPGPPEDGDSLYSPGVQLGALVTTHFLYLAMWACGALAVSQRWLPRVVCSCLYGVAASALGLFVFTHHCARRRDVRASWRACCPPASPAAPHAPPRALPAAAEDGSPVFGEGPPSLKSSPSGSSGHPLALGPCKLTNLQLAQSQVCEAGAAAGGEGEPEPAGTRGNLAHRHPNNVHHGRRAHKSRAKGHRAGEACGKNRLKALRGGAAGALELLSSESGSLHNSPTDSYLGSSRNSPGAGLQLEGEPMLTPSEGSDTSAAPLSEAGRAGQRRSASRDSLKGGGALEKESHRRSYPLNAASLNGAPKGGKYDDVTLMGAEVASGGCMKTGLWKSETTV
Experimental: To determine which of the gene candidate encodes for AI receptors, an siRNA approach is used to knock down each candidate individually to determine which one prevents the toxic effect of ST-11 and thus encodes for AI receptors. The prediction is that knocking down AI receptors prevents the cell death induced by ST-11. T98 g cells were treated with siRNA targeting each of the 39 GPCR gene candidates individually. The first experiment was designed to knock down each GPCR candidate liming a mixture of 3 siRNAs, and thus maximize genetic targeting efficacy. Thus, cells were incubated with siRNA mixtures and then treated with ST-11 (1 μM) and cell viability measured after three days. Only one mixture of siRNAs (that targeting GPR124) decreased the toxicity of ST-11. […] Two of the three siRNAs knocked-down GPR124 expression by more than 80% over 4 days (FIG. 5b). […] The killing effect induced by ST-11 is mediated by GPR124, an AI receptor.

SMILES: CCn1c(C)c(C(=O)c2ccc(C)c3ccccc23)c2ccccc21 [ST-11]
- number of lymphocytes in DBT tumors (DBT tumors): increases the number of lymphocytes
- number of microglia in DBT tumors (DBT tumors): increases
- ST-11-induced killing of T98 g cells when GPR124 mRNA expression is reduced (GPR124): reduced
